Measurements reported in patent US20040202736A1, “Method of ameliorating side-effects of SERMs” (Pharmaton S.A., priority 2003, published 2004).
Entries after “also recorded” stand apart in the source; their conditions may differ.

Experiments:
[1] = system: hot flushes among breast cancer survivors under tamoxifen adjuvant therapy
[2] = system: invasive breast cancer; conditions: cited from earlier work
[3] = system: breast cancer survivors women; assay: Clinical practice: 1,600 breast cancer survivors treated with tamoxifen, adverse effects; assay type: in vivo
Text: The improvements in recurrence-free survival and in overall survival have been between the ranges reported by the published literature. However, into the total treated group, we have found only one case of endometrial cancer, well differentiated and of small size (table 2).
Many of these women had recently stopped HRT, at the time the diagnosis of breast cancer was made.

[4] = system: vasomotor symptoms of patients treated with tamoxifen; assay: Separate uncontrolled experiences to control vasomotor symptoms of patients treated with tamoxifen; assay type: in vivo, women; conditions: given to patients treated with tamoxifen
[5] = usual-care n = 46 (six months), intervention n = 90 (end of study), tamoxifen 20 mg/day, BNO 1055 20 mg twice a day
[6] = usual-care n = 46, intervention n = 90

With `CC/C(=C(\c1ccccc1)c1ccc(OCCN(C)C)cc1)c1ccccc1` [Tamoxifen, Z-2-[4-(1,2-diphenyl-1-butenyl)phenoxy]-N,N-dimethyl-ethylamine] the “decline of bimonthly reported numbers of hot flushes from baseline” value ([1]; baseline vs six months of tamoxifen adjuvant therapy, severe or moderate hot flushes, not significant, P=0.71) was 5 to 9%, the “minor adverse events, number” value ([1]; during the study) was “seven” and the serious events ([1]; during the study) was “No serious events”. The “Hot Flushes Severe, number of patients” value [1, 5] was 34, the “Hot Flushes Severe, proportion of patients” value [1, 5] was 73.9% and the “Hot Flushes Moderate, number of patients” value [1, 6] was 12. For the same compound, the “Hot Flushes Moderate, proportion of patients” value [1, 6] was 26.1%, the “reduction of the risk of invasive breast cancer” value ([2]; 20 mg/day, 69 months of follow-up) was 49% and the “effect on ER-negative tumors” value ([2]; 20 mg/day) was “no effect”. The “incidence of adverse events, including endometrial cancer” value ([2]; women younger than 50) was “no increased incidence”, the “patients who reported hot flushes” value ([3]; postmenopausal patients, tamoxifen 20 mg/day) was 25% and the “patients who reported hot flushes” value ([3]; premenopausal women, mostly severe, tamoxifen 20 mg/day) was “up to 74%”. For the same compound, the withdrawal ([3]; tamoxifen 20 mg/day) was less than 5% and the “cases of endometrial cancer” value ([3]; total treated group (1,600), well differentiated and of small size) was “one”.
For `CC(=O)[C@H]1CC[C@H]2[C@@H]3CCC4=CC(=O)CC[C@]4(C)[C@H]3CC[C@]12C` [progesterone], the “control of vasomotor symptoms / severe hot flushes” value [4] was “very unsatisfactory results; also recorded: failed to reach a satisfactory control”.
With `Clc1cccc(Cl)c1N=C1NCCN1` [clonidine] the “control of vasomotor symptoms / severe hot flushes” value [4] was “very unsatisfactory results; also recorded: failed to reach a satisfactory control”.
With Vitamin E the “control of vasomotor symptoms / severe hot flushes” value [4] was “very unsatisfactory results; also recorded: failed to reach a satisfactory control”.
